BindingDB's records for doi:10.1016/S0960-894X(01)80741-1 (1993)
pKi: −log10 of the molar value.

Assay: Compound was tested for inhibitory activity against carboxypeptidase A

- pKi: 8.11
SMILES: O=C(O)[C@@H](CS)Cc1ccccc1 [(S)-2-Mercaptomethyl-3-phenyl-propionic acid]
